row,Structure (SMILES),melting point
1,COC(=O)C1Cc2cccc(OC)c2N1S(=O)(=O)c1ccc(I)cc1 (stereo not drawn),161 °C
2,COC(=O)C1COc2ccc(S)cc2C1 (stereo not drawn),83 to 84 °C
3,Cc1ccc(S(=O)(=O)N2CCC3(C=Cc4ccccc43)CC2)cc1,168 to 170 °C
4,C[C@H](NC(=O)C1(C)Oc2ccc([N+](=O)[O-])cc2NC1=O)C(=O)N[C@H](CCC(=O)O)C(N)=O (stereo partly drawn),142 to 146 °C
5,COc1c(/C=C/c2ccc(NS(C)(=O)=O)cc2)cc(N2CCC(=O)NC2=O)cc1C(C)(C)C,260 to 261 °C
6,O=[N+]([O-])N=C1N(Cc2ccc(Cl)nc2)CCN1[N+](=O)[O-],158 °C
7,O=C(c1cccs1)c1cnn2c(-c3cccc(N(C(=O)c4c(Cl)cccc4Cl)C(=O)c4c(Cl)cccc4Cl)c3)ccnc12,238 to 240 °C
8,C[C@@H]1Cc2ccsc2[C@H](C)N1CCCNC(=O)c1ccc(NS(C)(=O)=O)cc1 (relative stereo),148 to 150 °C
9,COC(=O)c1ccc2c(nc(C)n2Cc2ccccc2)c1C(=O)OC,192 to 195 °C
10,NCCCNC(=O)c1ccc(-c2nn(-c3ccc(C(=O)O)cc3)c3ccccc23)cc1,285 to 288 °C
11,Cc1nnc(C(=O)CCCCCCOc2ccc(O)cc2)o1,134 to 135 °C
12,Nc1ccc(S(=O)(=O)Nc2cccc3[nH]ccc23)cc1,215 °C
13,CCOC(=O)c1cnoc1-c1ccc(F)cc1,34 to 38 °C
14,C1=C(c2csc3ccccc23)CCN(Cc2ccccc2)C1,90 °C
15,CCc1cccc(C)c1CNc1cc(Br)cc2c1ncn2C,132 to 134 °C
16,Cc1cc(Cl)ccc1NC(=O)c1cccc(S(=O)(=O)N(C)c2ccc(Br)cc2)c1,163 to 164 °C
17,COc1ccc2c(c1)c(=O)n1nc(C(N)=O)cc1n2C,> 300 °C
18,CCn1nc2c(N)nc3ncccc3c2c1CC(C)C,273 to 276 °C
19,S=C(NC1CC1)N1CCc2[nH]cnc2C1,185 °C
20,CCCC1(CCC)Oc2c(ccc(O)c2C(C)=O)-c2ccccc21,83 to 83.5 °C
21,COc1nn(-c2cccc(N(C)C(C)=O)c2)c(=O)n(Cc2ccc(Cl)cc2)c1=O,157 °C
22,CS(=O)(=O)OC[C@@H]1Cc2cc3ccccc3n2C[C@H]1COS(C)(=O)=O (relative stereo),139 to 141 °C
23,COc1cc(OCc2ccc3ccccc3c2)cc(C(=O)c2nccs2)c1,105 to 106 °C

row,Structure (SMILES),melting point
1,O=C1c2ccccc2-c2c1c1ccccc1c(=O)n2CCCCCCCCCCCNS(=O)(=O)c1ccccc1,170 to 172 °C
2,CCc1cccc(C(O)c2nc(OC)cc(OC)n2)c1N (stereo not drawn),85 to 86 °C
3,O=C(NCCO)c1cccc(-c2ccc3ccn(Cc4ccc(Cl)cc4Cl)c3c2)c1,124 to 125 °C
4,O=C(O)CCc1[nH]nc2c1CCCC2,135 to 136 °C
5,COc1ccc(C(N)=O)c(OC)c1-c1ccc(C[C@H](NC(=O)c2c(Cl)cccc2Cl)C(=O)O)cc1,227 to 228 °C
6,CCc1cc(O)c(C(=O)CCc2ccc3occc3c2)c(OC2OC(CO)C(O)C(O)C2O)c1 (stereo not drawn),146 to 148 °C
7,Clc1ccc2c(C3CCN(CCCC4Cc5ccccc5C4)CC3)c[nH]c2c1,134 to 135 °C
8,CCN1C(=O)C(C)(C)C(=O)N(C)c2cc(CN(CCn3ccc4oc(C)cc4c3=O)Cc3ccccc3C=O)ccc21,157 to 158 °C
9,COC(=O)COCc1cc2cc(C(F)(F)F)ccc2n1S(=O)(=O)c1ccccc1,90 to 92 °C
10,CC(C#N)(C(=O)NC1CCCCC1)c1ccccc1 (stereo not drawn),76 to 78 °C
11,CCc1nc2c(N)nc3cc(CCC(=O)N4CCOCC4)ccc3c2n1CC(C)(C)O,237 to 239 °C
12,Cc1cc(Cl)cc(C(=O)NC(C)(C#N)C2CC2)c1NC(=O)c1cc(C(F)(F)F)nn1-c1ncccc1Cl (stereo not drawn),226 to 228 °C
13,CN1CC=C(c2c[nH]c3ccc(NC(=N)c4ccco4)cc23)CC1,212 to 215 °C
14,COC(=O)c1cc(I)cn1CCF,49 to 50.5 °C
15,N#Cc1ncccc1C(=O)ON=Cc1ccc(Cl)cc1,160 °C
16,COn1c(C#N)c(C#N)c(Br)c1-c1ccc(Cl)cc1,166 to 167 °C
17,COc1cc(OC)nc(Oc2cccnc2CO)n1,115 °C
18,Nc1cc(Cl)c(Oc2ccc(S(=O)(=O)c3ccc(Cl)cc3)cc2)c(Cl)c1,186 to 187 °C
19,O=C(O)C(CC1CCCC1)c1cccc([N+](=O)[O-])c1 (stereo not drawn),95 to 99 °C
20,CSc1ccc(CN2CC(C)(C)C(Oc3ccc(C#N)c(C(F)(F)F)c3)C2=O)cc1 (stereo not drawn),44.1 to 44.8 °C
21,COC(=O)c1cc2c(Br)cccc2n1C,85 to 86 °C
22,COc1cc(/C=C/C=O)c([N+](=O)[O-])cc1OC,103 to 105 °C
23,CCCc1nc(C(O)C(C)(C)C)c(C(N)=O)n1Cc1ccc(-c2ccccc2C(=O)O)cc1 (stereo not drawn),> 160 °C

row,Structure (SMILES),melting point
1,COc1cccc2c1C(=O)c1c(O)cc(CO)cc1C2=O,215 to 216 °C
2,CCOC(=O)Cn1c(CC)nc2c(OCc3ccc(OC)cc3)cccc21,112 °C
3,CCCCc1c(Cc2ccc(-c3ccccc3-c3nnn[nH]3)cc2)c(C(=O)O)nn1CCCC,108 °C
4,O=[N+]([O-])c1ccc2[nH]cc(CCCBr)c2c1,92 to 95 °C
5,COc1cccc(CC(=O)O)c1OCCCc1cn(-c2ccc(Cl)cn2)nc1C(C)C,148 to 149 °C
6,O=C1CN=C(c2ccccc2)c2cc(C(=O)c3ccc(Cl)cc3)ccc2N1,230 °C
7,COC(=O)[C@H]1C[C@H](NC(=O)Cc2ccccc2)c2c(Cl)cc(Cl)cc2N1 (relative stereo),226 to 228 °C
8,COc1cccc(OC)c1-c1cc(C(=O)NC2(C(=O)O)C3CC4CC(C3)CC2C4)nn1-c1ccc(NC(=O)CCN2CCCCC2)cc1C (stereo not drawn),240 °C
9,COc1nc(N(C)C)nc(CCCCCCCCCCO)c1O,104 to 105 °C
10,CNC(=O)ON=C1N=C(C)C(C)(CC(C)C)S1 (stereo not drawn),99 to 101 °C
11,CCCCCCCCCCC1COC(=O)N1C(C)=O (stereo not drawn),51 to 53 °C
12,NS(=O)(=O)c1ccc(-n2nc(CCCNC(=O)Nc3ccc(C(F)(F)F)cc3)cc2-c2ccccc2)cc1,185 to 186 °C
13,COc1cc(N)c(Cl)cc1C(=O)OCC12CCCN(CC1)C2 (stereo not drawn),131 to 133 °C
14,OCCSC(=S)Nc1ccc(Cl)cn1,108 °C
15,O=C1c2ccccc2-c2[nH]nc(-c3ccncc3)c21,> 300 °C
16,COc1ccc(C(=NO)c2ccc(Cl)cc2)c(O)c1,159 °C
17,Cc1cccc(NC(=O)OC(C)(C)C)c1CNc1cccn2c(C)c(C)nc12,128 to 131 °C
18,Cc1cccc(C(=O)NO)c1N(C)S(=O)(=O)c1ccc(OCCCNC(=O)c2cc3ccccc3[nH]2)cc1,144 to 146 °C
19,CC1(C)C(=O)Nc2ccc(C3=NNC(=O)C4CC34)cc21 (stereo not drawn),334 to 335 °C
20,Nc1noc2cccc(OCCBr)c12,105 to 107 °C
21,CN(C(=O)C(Br)OC(N)=O)c1ccccc1 (stereo not drawn),136 to 138 °C
22,CNS(=O)(=O)CCc1ccc2[nH]cc(CCCN3C(=O)c4ccccc4C3=O)c2c1,169 to 170 °C

# The remaining lines, values ahead:
row,melting point,Structure (SMILES)
1,190 to 191 °C,O=C(N[C@H](Cc1ccccc1)C(=O)O)OCc1ccc2nc(-c3ccccc3)ccc2c1
2,203 °C,O=C(O)CCCc1cc2cc(Cl)ccc2n1S(=O)(=O)c1ccc2c(c1)CCN2
3,152 to 154 °C,Cc1cc2c(cc1C13CC1CCC3=O)C(C)(C)CCC2(C)C (stereo not drawn)
4,111 to 112 °C,CN1CC(CCN2CCOCC2)c2nc3ccccc3n2C1=O (stereo not drawn)
5,240 °C,O=C(O)C[C@H]1CC[C@H](Cn2nc(-c3cccs3)c(Cc3cc4c(cc3Cl)OCO4)c2C(=O)O)CC1
6,248 to 249 °C,O=C(O)c1cc2c(F)ccc(Cl)c2s1
7,220 to 232 °C,C=C1CCc2c(F)c(F)cc3c(=O)c(C(=O)O)cn1c23
8,72 to 73 °C,OCc1cnoc1-c1ccc(F)c(F)c1
9,207 to 208 °C,CC(C)CC1(C(CCN2C(=O)c3cc(Cl)c(Cl)cc3C2=O)C(=O)NO)CCN(CCc2ccccc2)C1=O (stereo not drawn)
10,158 °C,COc1ccc(CN(C)CCCSc2ccc(NC(=O)c3cccc4c(=O)c5cccc(C)c5[nH]c34)cc2)cc1OC
11,137 to 138 °C,N#CCCNC(=O)C1CC(CF)(CF)Oc2ccc([N+](=O)[O-])cc21 (stereo not drawn)
12,112 to 115 °C,COc1cc(CC(=O)NCCOc2ccc(C(=O)O)cc2[N+](=O)[O-])ccc1N(C(N)=O)c1ccccc1C
13,116 to 118 °C,Oc1ccc2c(c1)cc1n2CCC1
14,145 to 146 °C,Clc1ccc(N2CCN(Cc3cn4cc(Cl)ccc4n3)CC2)cc1
15,200 to 202 °C,CC(C)Oc1ccc(C=C(C=O)C(C=O)=Cc2ccc(OC(C)C)cc2)cc1
16,126 to 127 °C,COc1ccc(-c2cccc(C(=O)NCCC#N)c2)c2cc(Cc3cccc(C(F)(F)F)c3)oc12
17,189 to 190 °C,CC1CC(=O)NN=C1c1ccc(NC(=O)C2(Cl)CC2)cc1 (stereo not drawn)
18,236 to 237 °C,O=C(O)c1sc2ccc3c(c2c1Cl)O[C@@H](CO)CO3
19,186 to 188 °C,Fc1cccc(-c2nc3cc(Br)ccn3n2)c1
20,182 to 183 °C,COC(=O)c1ccc(-c2nc(-c3ccc(C(F)(F)F)cc3)co2)cc1
21,157 to 159 °C,CC1CN(C(=O)c2ccc(Cl)cc2Cl)c2ccc(Cl)cc2C1=O (stereo not drawn)
22,191 to 193 °C,CS(=O)c1ccc(C2=NN(S(=O)(=O)c3ccc(I)cc3)CCC2)cc1 (stereo not drawn)
23,186 to 191 °C,O=C(CC[C@H]1CC[C@H](Nc2ncc3ncnc(Nc4ccc(F)c(Cl)c4)c3n2)CC1)N1CCOCC1
24,142 to 144 °C,CS(=O)(=O)NC[C@@H]1CN(c2ccc(N3CCC(O)(CN=[N+]=[N-])CC3)c(F)c2)C(=O)O1
25,250 to 252 °C,Cc1cc(=O)n(-c2cccc(Cl)c2)c(=O)[nH]1
26,245 to 247 °C,Cn1cc(S(C)=O)c(=O)c2ccc(Cl)cc21 (stereo not drawn)
27,159 °C,CS(=O)COC(=O)c1oc(-c2ccccc2)cc(=O)c1Br (stereo not drawn)
28,202 to 204 °C,CCCc1[nH]c(=O)oc1-c1ccnc(-c2ccccc2)c1
29,> 300 °C,CC(C)(C)c1cc(CON2C(=O)COc3ccc(C=C4SC(=S)NC4=O)cc32)cc(C(C)(C)C)n1
30,232 to 234 °C,O=C(Nc1ccccc1)c1ccc2c(c1)N(C1CC1)CNS2(=O)=O

# — a melting point compilation (Tetko et al.; mined from patent text by program, amines drawn as free bases though some values may be those of a salt)
